As usually defined, the DC50 is the midpoint of the concentration-degradation curve.

We go through one compound from patent US20260335299A1, “SUBSTITUTED OXOISOINDOLINYL PIPERIDINE-2,6-DIONE COMPOUND AS ANTICANCER AGENT” (BRISTOL-MYERS SQUIBB COMPANY, priority 2023, published 2026).

Each structure is given as a SMILES string. Where two headings read alike, the source gives them in different places.

The target of one test is IKZF2 Helios (Homo sapiens, UniProt Q96SW2+Q9UKS7). Put plainly: Jurkat Cellular Degradation Assay (Helios). The conditions noted are these: Jurkat cells, 72 h. The test is classed as cell-based. Further details: endogenous in cells; host or cells: Jurkat cells. As for the experimental part:
Jurkat cells were plated at 80,000 cells/well in 40 μL RPMI+10% FBS in a 384-well cell culture plate prior to using acoustic dispensing technology for adding a compound of interest. Cell cultures were incubated for 72 h at 37° C. and 5% CO2. In order to facilitate analysis, cell cultures were spun down at 200 rpm for 5 min and the supernatant was discarded. After shaking the plate to dislodge the cell pellet, cells were resuspended in 50 μL of Fixation Buffer (eBioscience FoxP3 buffer set 00-5523-00) for 60 min at room temperature. After centrifuging and discarding the supernatant, cells were permeabilized with 50 μL of Permeabilization buffer (eBioscience FoxP3 buffer set 00-5523-00) for 10 min at room temperature. […] Stained cells were resuspended in 25 μL of flow cytometry staining buffer [PBS+0.2% bovine serum albumin (BSA)] and analyzed using an Intellicyt Ique Plus flow cytometer.
Table A-1 lists the maximum observed degradation of the IKZF1 protein, IKZF2 protein, and IKZF3 protein as measured in the Jurkat Cellular Degradation assay. […]

The target in another test is IKZF3 Aiolos (Homo sapiens, UniProt Q96SW2+Q9UKT9). Kind of test: Human CD8+ T Cell Reprogramming (Degradation) Assay (Aiolos). As to conditions: 24 h. More on the design: Cryopreserved healthy donor human peripheral blood mononuclear cells (PBMC); endogenous in cells; host or cells: CD8+ T cells within healthy donor human PBMC. The class given is cell-based. How it is done: Cryopreserved healthy donor human peripheral blood mononuclear cells (PBMC) from healthy donors were thawed and seeded at 500,000 cells/well of 96-well round bottom plates in RPMI 1640 media (Gibco) supplemented with 10% FBS, Pen/Strep (Gibco), MEM-NEAA (Gibco), and sodium pyruvate (Gibco). Cells were treated with titrated doses of compound for 24 hours at 37° C., 5% CO2 before analyzing by flow cytometry.
IKZF3 Aiolos, sequence (Q9UKT9 whole entry): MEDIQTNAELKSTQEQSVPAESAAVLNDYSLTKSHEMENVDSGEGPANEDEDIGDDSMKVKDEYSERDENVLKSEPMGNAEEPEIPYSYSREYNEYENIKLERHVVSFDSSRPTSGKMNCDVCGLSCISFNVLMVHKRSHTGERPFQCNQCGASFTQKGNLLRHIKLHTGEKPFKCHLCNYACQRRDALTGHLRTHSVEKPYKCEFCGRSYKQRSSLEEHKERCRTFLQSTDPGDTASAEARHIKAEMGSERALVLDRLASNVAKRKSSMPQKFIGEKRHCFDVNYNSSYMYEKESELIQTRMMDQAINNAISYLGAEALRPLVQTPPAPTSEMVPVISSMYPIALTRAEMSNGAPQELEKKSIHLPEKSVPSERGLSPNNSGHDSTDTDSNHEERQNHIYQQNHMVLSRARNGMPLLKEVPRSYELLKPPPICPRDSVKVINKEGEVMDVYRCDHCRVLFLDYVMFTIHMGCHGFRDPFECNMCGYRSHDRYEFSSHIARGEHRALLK
IKZF3 Aiolos, sequence (Q96SW2 whole entry): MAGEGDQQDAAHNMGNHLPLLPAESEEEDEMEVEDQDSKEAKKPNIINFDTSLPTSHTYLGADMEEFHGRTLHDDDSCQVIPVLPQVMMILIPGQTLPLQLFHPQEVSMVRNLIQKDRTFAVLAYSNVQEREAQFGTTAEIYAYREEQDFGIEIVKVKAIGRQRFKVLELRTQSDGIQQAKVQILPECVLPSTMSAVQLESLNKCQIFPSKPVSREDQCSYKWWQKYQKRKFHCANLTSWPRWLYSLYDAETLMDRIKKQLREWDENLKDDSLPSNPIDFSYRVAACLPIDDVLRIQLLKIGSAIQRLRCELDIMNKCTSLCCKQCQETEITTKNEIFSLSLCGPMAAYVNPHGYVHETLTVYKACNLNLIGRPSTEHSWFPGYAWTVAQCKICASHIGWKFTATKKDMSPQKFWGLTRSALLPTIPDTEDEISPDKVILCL
IKZF3 Aiolos, sequence (Q16531 whole entry partner): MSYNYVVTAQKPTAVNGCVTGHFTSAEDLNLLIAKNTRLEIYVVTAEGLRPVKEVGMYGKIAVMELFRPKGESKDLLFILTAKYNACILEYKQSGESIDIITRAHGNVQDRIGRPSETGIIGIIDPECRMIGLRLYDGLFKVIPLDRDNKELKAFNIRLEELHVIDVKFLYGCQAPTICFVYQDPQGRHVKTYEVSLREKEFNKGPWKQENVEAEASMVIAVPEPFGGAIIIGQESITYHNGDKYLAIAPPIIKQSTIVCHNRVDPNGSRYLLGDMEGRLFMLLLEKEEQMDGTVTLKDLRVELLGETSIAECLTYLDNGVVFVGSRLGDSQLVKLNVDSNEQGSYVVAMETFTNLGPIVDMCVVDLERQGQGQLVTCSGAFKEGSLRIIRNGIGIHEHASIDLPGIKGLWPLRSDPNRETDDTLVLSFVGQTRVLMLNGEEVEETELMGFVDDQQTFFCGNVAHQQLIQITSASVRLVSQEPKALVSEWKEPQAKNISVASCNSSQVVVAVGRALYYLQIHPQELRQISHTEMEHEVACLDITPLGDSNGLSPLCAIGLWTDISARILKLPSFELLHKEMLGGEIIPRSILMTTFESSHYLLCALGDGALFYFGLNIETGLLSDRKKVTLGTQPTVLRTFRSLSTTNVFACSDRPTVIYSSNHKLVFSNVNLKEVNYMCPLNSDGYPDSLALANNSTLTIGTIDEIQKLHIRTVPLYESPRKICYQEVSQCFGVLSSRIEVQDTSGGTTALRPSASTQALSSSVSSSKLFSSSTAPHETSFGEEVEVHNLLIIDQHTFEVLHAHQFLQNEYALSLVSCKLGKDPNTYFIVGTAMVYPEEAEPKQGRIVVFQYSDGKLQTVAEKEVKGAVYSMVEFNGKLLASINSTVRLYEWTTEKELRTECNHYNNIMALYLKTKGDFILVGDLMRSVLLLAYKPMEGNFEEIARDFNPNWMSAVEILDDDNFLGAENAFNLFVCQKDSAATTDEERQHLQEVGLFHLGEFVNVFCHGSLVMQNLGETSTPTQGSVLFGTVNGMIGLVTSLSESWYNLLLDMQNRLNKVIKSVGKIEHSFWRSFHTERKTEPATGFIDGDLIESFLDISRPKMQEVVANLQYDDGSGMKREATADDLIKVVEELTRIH
For flow cytometry staining, cells were washed twice with flow cytometry staining buffer (Thermo Fisher) and incubated in Human Tru-stain Fc block (Biolegend) for 10 minutes before adding eFluor780 viability dye (Thermo Fisher) and surface marker antibody cocktail containing LD-eFluor780, CD3-BUV-395, CD4-BUV805, CD8-FITC, and CD25-BV605 for 30 minutes at 4° C. Cells were then fixed and permeabilized by incubation with permeabilization buffer (eBioscience FoxP3 buffer set 00-5523-00) for 30 minutes at 4° C. as per the kit manufacturer's instructions. Cells were washed twice with the Perm/Wash buffer supplied in the kit as per the manufacturer's instructions and incubated overnight at 4° C. with an intracellular antibody cocktail comprised of antibodies specific for the transcription factors (i.e., Foxp3-BV421, HELIOS-PE-Cy7, EOS-PE, IKAROS-PECF594, AIOLOS-AF647). Cells were washed twice with Perm/Wash buffer and resuspended in flow cytometry staining buffer (Thermo Fisher) prior to acquisition. Sample acquisition and analysis was performed using a BD LSRFortessa (BD Biosciences) flow cytometer. Single-stain controls for each fluorochrome were prepared using UltraComp eBead Compensation Beads (Thermo Fisher). Data were analyzed using FlowJo version 10 and GraphPad Prism Software.
Table D-1 lists the maximum observed degradation of the IKZF1 protein and IKZF3 protein as measured in the Human CD8^+ T Cell Reprogramming assay. The results in Table D-1 were rounded to two digits. In the Human CD8^+ T Cell Reprogramming assay, a value of 100% indicated no detectable protein remaining or complete degradation of the protein; and a value of 0% indicated no detectable degradation of the protein by the test compound.

IKZF2 Helios, sequence (Q9UKS7 whole entry): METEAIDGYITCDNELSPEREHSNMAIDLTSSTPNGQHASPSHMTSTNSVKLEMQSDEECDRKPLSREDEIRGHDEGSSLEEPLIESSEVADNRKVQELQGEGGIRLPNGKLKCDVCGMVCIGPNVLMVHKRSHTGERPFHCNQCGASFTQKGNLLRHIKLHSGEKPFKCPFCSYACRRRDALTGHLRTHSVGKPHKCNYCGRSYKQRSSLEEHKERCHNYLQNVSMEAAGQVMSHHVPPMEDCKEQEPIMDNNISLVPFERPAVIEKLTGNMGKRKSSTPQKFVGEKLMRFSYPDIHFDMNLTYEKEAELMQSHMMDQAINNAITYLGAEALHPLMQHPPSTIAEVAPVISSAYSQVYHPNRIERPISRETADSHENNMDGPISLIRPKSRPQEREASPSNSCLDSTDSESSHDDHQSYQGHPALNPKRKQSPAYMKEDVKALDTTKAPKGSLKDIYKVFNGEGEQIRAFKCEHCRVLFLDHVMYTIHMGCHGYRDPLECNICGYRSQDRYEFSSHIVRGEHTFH
IKZF2 Helios, sequence (Q96SW2 whole entry): as the sequence (Q96SW2 whole entry) above
IKZF2 Helios, sequence (Q16531 whole entry partner): as the sequence (Q16531 whole entry partner) above

Regarding `Nc1nc(-c2ccc3c(c2F)CN(C2CCC(=O)NC2=O)C3=O)ccc1CN1CC(C2CCC(F)(F)CC2)C1` (stereo not drawn) [Example 1, 3-(5-(6-Amino-5-((3-(4,4-difluorocyclohexyl)azetidin-1-yl)methyl)pyridin-2-yl)-4-fluoro-1-oxoisoindolin-2-yl) piperidine-2,6-dione], the DC50 was 0.0044 µM on IKZF2 Helios (concentration reducing protein level by 50% compared to DMSO alone) and 0.033 to 0.036 µM on IKZF3 Aiolos (CD8+ T cells, human PBMC, concentration reducing protein level by 50% compared to DMSO alone). Besides, the Dmax is 92% on IKZF2 Helios (human, read-out: IKZF2 Helios max % deg. observed); 80 to 84% on IKZF3 Aiolos (summary table, Human CD8+ T Cell Reprogramming Assay (Table D-1), read-out: IKZF3 Aiolos max % deg. observed (Table E)); 80 to 84% at IKZF3 Aiolos (CD8+ T cells, human PBMC, read-out: IKZF3 Aiolos Maximum Observed Degradation); at least 80% on IKZF3 Aiolos (human, text summary of Table D-1, read-out: decreased the level of IKZF3 (Aiolos)).
